Where “and” joins values, the source holds several entries; their conditions need not be identical. Equal entries are not always repeated. Where two headings read alike, the source gives them in different places.
Assays:
HMGCR = biological target: T1, HMGCR (Cricetulus griseus, UniProt P00347); test: Immunoblotting of endogenous HMGCR protein in CHO-7 (or CHG) cells; assay type: cell-based, Chinese hamster; settings: for increase of HMGCR protein (maximum increment): CHO-7 cells, statin 16 h, DMSO = 1; for endogenous HMGCR protein level (immunoblot), mean: CHG cells, 16 h, DMSO = 100
T1 construct: endogenous in cells; host or cells: CHO-7, CHG, SRD-13A, SRD-15
T1 sequence (P00347 1-887): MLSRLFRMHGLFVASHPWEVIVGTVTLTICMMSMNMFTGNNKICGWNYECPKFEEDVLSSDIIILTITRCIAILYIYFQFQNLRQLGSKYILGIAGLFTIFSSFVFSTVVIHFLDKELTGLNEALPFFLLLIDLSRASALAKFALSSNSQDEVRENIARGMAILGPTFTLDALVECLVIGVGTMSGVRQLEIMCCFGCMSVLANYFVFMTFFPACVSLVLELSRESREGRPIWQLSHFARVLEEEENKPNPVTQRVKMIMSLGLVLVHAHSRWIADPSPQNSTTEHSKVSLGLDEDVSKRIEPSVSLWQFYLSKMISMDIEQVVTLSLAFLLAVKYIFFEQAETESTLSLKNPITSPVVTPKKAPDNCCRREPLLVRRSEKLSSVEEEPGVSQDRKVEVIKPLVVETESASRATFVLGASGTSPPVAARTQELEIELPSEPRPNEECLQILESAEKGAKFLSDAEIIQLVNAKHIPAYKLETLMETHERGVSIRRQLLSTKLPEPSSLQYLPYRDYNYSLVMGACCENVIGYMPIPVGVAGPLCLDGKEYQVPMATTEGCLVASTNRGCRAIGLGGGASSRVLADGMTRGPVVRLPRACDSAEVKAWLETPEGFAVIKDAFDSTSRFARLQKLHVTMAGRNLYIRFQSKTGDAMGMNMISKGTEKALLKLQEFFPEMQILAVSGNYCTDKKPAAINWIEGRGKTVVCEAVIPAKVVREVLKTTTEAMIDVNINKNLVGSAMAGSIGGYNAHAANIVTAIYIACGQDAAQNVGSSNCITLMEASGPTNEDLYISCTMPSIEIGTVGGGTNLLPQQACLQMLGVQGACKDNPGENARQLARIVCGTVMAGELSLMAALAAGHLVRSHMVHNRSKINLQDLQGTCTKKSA
Method: CHO-7 (Chinese hamster ovary cell, a clone of CHO-K1 cell line selected for growth in LPDS) and Huh7 (a human hepatocellular carcinoma cell line), SRD-13A (a Scap-deficient CHO-7 cell line) and SRD-15 (an Insig-1 and Insig-2-deficient CHO-7 cell line) were generous gifts from Russell Debose-Boyd at UT Southwestern Medical Center, USA. All cells were grown in a monolayer at 37 °C with 5% CO2. Huh7 cells were maintained in medium A supplemented with 10% FBS. CHO-7 and SRD-15 cells were maintained in medium B supplemented with 5% FBS. SRD-13A cells were maintained in medium B with 5% FBS, 5 μg ml^−1 cholesterol, 1 mM sodium mevalonate, 10 μM sodium oleate. No cell lines used in this study were found in the database of commonly misidentified cell lines that is maintained by ICLAC and NCBI Biosample. The cell lines have not been authenticated recently. No test for mycoplasma contamination was performed.
(§1) Cells were harvested and homogenized in the RIPA buffer (50 mM Tris-HCl, pH 8.0, 150 mM NaCl, 2 mM MgCl2, 1.5% NP-40, 0.1% SDS, and 0.5% sodium deoxycholate) supplemented with protease cocktail inhibitor, 10 μM MG-132, 10 μg ml^−1 leupeptin and 1 mM phenylmethylsulfonyl fluoride. The protein concentrations of lysates were determined using BCA method (Beyotime). Samples were mixed with the membrane protein solubilization buffer (62.5 mM Tris-HCl, pH 6.8, 15% SDS, 8 M urea, 10% glycerol, and 100 mM DTT) plus the 4× loading buffer (150 mM Tris-HCl, pH 6.8, 12% SDS, 30% glycerol, 6% 2-mercaptoethanol, and 0.02% bromophenol blue) and incubated for 30 min at 37 °C. Proteins were resolved by SDS-PAGE and transferred to nitrocellulose membranes (GE Healthcare). Immnoblots were blocked with 5% non-fat milk in TBS containing 0.075% Tween-20 (TBST) and probed with indicated antibodies overnight at 4 °C. After washing in TBST for five times, blots were incubated with HRP-conjugated secondary antibodies for 2 h at room temperature. Immunoreactivity was developed with Clarity Western ECL chemiluminescent substrates (170–5061, Bio-Rad). Western blot images were captured by Amersham Imager 600 (GE Healthcare), and integrated optical intensities of each band were quantified by Image-Pro Plus 6 software (Media Cybernetics). Uncropped blots are shown in Supplementary Figs. 9–13.

Hmgcr mRNA = test: RT-qPCR of Hmgcr mRNA in CHO-7 cells; assay type: cell-based, Chinese hamster; settings: CHO-7 cells, statin 16 h (lovastatin up to 10 μM), DMSO = 1
Method: (§2) Cells were treated as described in corresponding figure legends, then total RNA was extracted from cells or mouse livers using TRI Reagent (T9424, Sigma-Aldrich). Equal amounts of RNA from cells or mice receiving the same treatment were pooled were used for cDNA synthesis with oligo dT and reverse transcriptase MLV (Promega). Gene expression was analyzed by quantitative real-time PCR on a Stratagene Mx30005PTM Q-PCR Systems. The primers used were listed in Supplementary Tables 2–4.

LXR signaling pathway [1] = tested on: LXR signaling pathway; design: method as in earlier work; settings: previous studies ref 2 (Yang, C. et al. J. Biol. Chem. 281, 27816-27826 (2006)); cited from earlier work
LXR signaling pathway [2] = test: RT-qPCR of LXR target genes (SREBP-1c, ABCA1, ABCG8) in Huh-7 cells; assay type: cell-based, human; settings: 16 h
Method: as §2, with “2–4. […]” for “2–4.”
pathway. a-c Huh-7 cells were treated with indicated compounds for 16 h and then harvested for total RNA isolation and RT-qPCR. Cells treated with LXR agonist T0901317 w ere used as positive controls. The relative mRNA levels of SREBP -1c (a), ABCA1 (b) and ABCG8 (c) were quantified . GAPDH was the reference gene. The relative mRNA level in DMSO-treated cells was defined as 1. Data are from 3 independent experiments and presented as mean ± SD.
(1 picture or pasted object on this page, not shown here)

HMGCR (TM1-8)-GFP [3] = biological target: T2, HMGCR (TM1-8)-GFP (Cricetulus griseus, UniProt P00347); test: Immunoblotting of overexpressed HMGCR (TM1-8)-GFP in CHG cells; assay type: cell-based, hamster; design: corresponding to the amino acids from 1 to 346 of hamster HMGCR; expressed in transfected cells; settings: 16 h, DMSO = 100
T2 sequence (P00347 1-346): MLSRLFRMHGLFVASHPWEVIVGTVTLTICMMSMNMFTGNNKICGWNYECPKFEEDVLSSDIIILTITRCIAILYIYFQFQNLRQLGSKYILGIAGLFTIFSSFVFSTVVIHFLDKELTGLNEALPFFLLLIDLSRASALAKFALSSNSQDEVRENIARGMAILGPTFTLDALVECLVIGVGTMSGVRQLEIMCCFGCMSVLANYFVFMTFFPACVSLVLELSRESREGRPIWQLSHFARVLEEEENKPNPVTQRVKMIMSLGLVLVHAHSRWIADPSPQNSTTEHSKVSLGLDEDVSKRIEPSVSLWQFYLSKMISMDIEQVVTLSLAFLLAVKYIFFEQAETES
Method: Fig. 2 A reporting system that measures HMGCR degradation. a Schematic of the HMGCR (TM1-8)-GFP fusion protein. […] Data are from three independent experiments and presented as mean ± SD. Source data are provided as a Source Data File.
as §1

HMGCR (TM1-8)-GFP [4] = biological target: T2, HMGCR (TM1-8)-GFP
Method: (§3) We thus generated a cell line stably expressing the transmembrane domain of HMGCR fused with green fluorescent protein (GFP) as a reporter (HMGCR (TM1-8)-GFP) (Fig. 2a).
(§4) CHO-7 cells were transfected with pCMV-HMGCR (TM1-8)-GFP using FuGENE HD. Twenty-four hours, cells were switched to medium B supplemented with 5% FBS and selected in the presence of 1 mg ml^−1 G418 for 2 weeks. Surviving colonies were isolated and confirmed for GFP expression by immunoblotting and immunofluorescence. The resulting CHO-7/HMGCR (TM1-8)-GFP stable cell line (CHG) was maintained in medium B supplemented with 5% FBS and 200 μg ml^−1 G418.
(§5) CHG cells were treated as described in figure legends. Briefly, cells were seeded at day 0 in 96-well black plate (3904, Corning) at a density of 1.5 × 10^4 cells per well, in medium B containing with 5% LPDS. Day 1, corresponding compounds were added as figure legends described in medium B with 5% LPDS, 1 μM lovastatin, 50 μM sodium mevalonate for 16 h. Then cells were fixed with 4% paraformaldehyde for 20 min, washed with PBS for three times, and stained with 2 μg ml^−1 Hoechst 33342.
(§6) The fluorescent images (GFP and Hoechst channel) were captured using an Operatta High-Content Imaging System (PerkinElmer) with a ×20 objective. The cytoplasmic GFP fluorescence was measured with the Harmony Software (PerkinElmer). Five random selected filed per well were captured, and about 3000 cells were used to determine the mean cytoplasmic GFP fluorescent intensity per cell after subtracting background GFP intensity. The average GFP intensity of DMSO-treated cells was defined as 100.

HMGCR (TM1-8)-GFP [5] = biological target: T2, HMGCR (TM1-8)-GFP; test: HMGCR (TM1-8)-GFP fluorescent assay (high-content imaging) in CHG cells
Method: as §3, §4, §5, §6

[6] = 16 h, read-out: HMGCR (TM1-8)-GFP fluorescent intensity, mean
[7] = read-out: Mean (HMGCR (TM1-8)-GFP signal relative to 0 μM = 100)

## CC(C)c1nc(N(C)S(C)(=O)=O)nc(-c2ccc(F)cc2)c1/C=C/[C@@H](O)C[C@@H](O)CC(=O)O [rosuvastatin]
HMGCR
  increase of HMGCR protein (maximum increment): ~17 fold
Hmgcr mRNA
  increase of Hmgcr mRNA abundance: 2.3 fold

## CC(C)=CCC[C@@H](C)[C@H]1CC[C@@]2(C)C3=C(CC[C@]12C)[C@@]1(C)CC[C@H](O)C(C)(C)[C@@H]1CC3 [lanosterol]
LXR signaling pathway [1]
  activation of LXR: no effect
LXR signaling pathway [2]
  expression of LXR target genes (SREBP-1c, ABCA1 and ABCG8) mRNA: did not activate the LXR target genes

## CC(C)CCC[C@@H](C)[C@H]1CC[C@H]2[C@@H]3CC=C4C[C@@H](O)CC[C@]4(C)[C@H]3CC[C@]12C [Cholesterol]
HMGCR; 1 uM
  endogenous HMGCR protein level (immunoblot), mean: 100.862
HMGCR; 3 uM
  endogenous HMGCR protein level (immunoblot), mean: 95.8793
HMGCR; 10 uM
  endogenous HMGCR protein level (immunoblot), mean: 57.8709
HMGCR (TM1-8)-GFP [3]; 1 uM
  overexpressed HMGCR (TM1-8)-GFP protein level (anti-GFP immunoblot), mean: 93.1421
HMGCR (TM1-8)-GFP [3]; 3 uM
  overexpressed HMGCR (TM1-8)-GFP protein level (anti-GFP immunoblot), mean: 90.7374
HMGCR (TM1-8)-GFP [3]; 10 uM
  overexpressed HMGCR (TM1-8)-GFP protein level (anti-GFP immunoblot), mean: 74.0079
HMGCR (TM1-8)-GFP [4]
  DC50: ~30.4 µM and 30.4 µM
HMGCR (TM1-8)-GFP [5]; [6]
  remaining activity at 0.001 µM: 100%
  remaining activity at 0.01 µM: 100%
  remaining activity at 0.1 µM: 95.9%
  remaining activity at 0.3 µM: 88.9%
  remaining activity at 1 µM: 77.2%
  remaining activity at 3 µM: 66.6%
  remaining activity at 10 µM: 65.5%
  remaining activity at 20 µM: 58.9%
  remaining activity at 30 µM: 47%

## CC[C@H](C)C(=O)O[C@H]1C[C@H](O)C=C2C=C[C@H](C)[C@H](CC[C@@H](O)C[C@@H](O)CC(=O)O)[C@H]21 [pravastatin]
HMGCR
  increase of HMGCR protein (maximum increment): ~12 fold
Hmgcr mRNA
  increase of Hmgcr mRNA abundance: 2.4 fold

## CC(C)c1c(C(=O)Nc2ccccc2)c(-c2ccccc2)c(-c2ccc(F)cc2)n1CC[C@@H](O)C[C@@H](O)CC(=O)O [atorvastatin]
HMGCR
  increase of HMGCR protein (maximum increment): ~9 fold
Hmgcr mRNA
  increase of Hmgcr mRNA abundance: 1.8 fold

## CCC(C)(C)C(=O)O[C@H]1C[C@@H](C)C=C2C=C[C@H](C)[C@H](CC[C@@H]3C[C@@H](O)CC(=O)O3)[C@H]21 [simvastatin]
HMGCR
  increase of HMGCR protein (maximum increment): ~ 15 fold
Hmgcr mRNA
  increase of Hmgcr mRNA abundance: 3.5 fold

## CC(C)n1c(/C=C/C(O)CC(O)CC(=O)O)c(-c2ccc(F)cc2)c2ccccc21 (stereo not drawn) [fluvastatin]
HMGCR
  increase of HMGCR protein (maximum increment): ~11 fold
Hmgcr mRNA
  increase of Hmgcr mRNA abundance: 2.6 fold

## CC(C)CCC[C@@H](C)[C@H]1CCC2C3C(CC[C@@]21C)[C@@]1(C)CC[C@H](O)C(C)(C)C1=C[C@H]3O (stereo partly drawn) [Compound 36]
HMGCR (TM1-8)-GFP [4]
  DC50: 11.9 µM
HMGCR (TM1-8)-GFP [5]; [6]
  remaining activity at 0.01 µM: 106%
  remaining activity at 0.03 µM: 91.7%
  remaining activity at 0.1 µM: 108%
  remaining activity at 0.3 µM: 91.3%
  remaining activity at 1 µM: 93.6%
  remaining activity at 3 µM: 69.8%
  remaining activity at 10 µM: 58.6%
  remaining activity at 20 µM: 37.2%

## COC(=O)CC[C@@H](C)C1CCC2C3C(CC[C@@]21C)[C@@]1(C)CC[C@H](O)C(C)(C)C1=C[C@@H]3O (stereo partly drawn) [Compound 49]
HMGCR (TM1-8)-GFP [4]
  DC50: 6.67 µM
HMGCR (TM1-8)-GFP [5]; [7]
  remaining activity at 0.156 µM: 93%
  remaining activity at 0.313 µM: 100%
  remaining activity at 0.625 µM: 100%
  remaining activity at 1.25 µM: 93%
  remaining activity at 2.5 µM: 78.9%
  remaining activity at 5 µM: 58.3%
  remaining activity at 10 µM: 37.6%
